According to patent US7763615B2, “Ecteinascidin analogs for use as antitumour agents” (priority 2001, dated 2010):
Like-named read-outs stand apart in the source and are kept apart here.

How the values were obtained:
A549 = assay: cells; type: cell-based; details: for GI50 / CC50 / IC (TGI) / TGI: A549, 48 hours exposure, SRB; for GI50: read-out: GI50; for CC50: read-out: LC50 (the source's name); for IC (TGI): read-out: TGI
Text: (§1) The finality of these assays is to interrupt the growth of a “in vitro” tumor cell culture by means of a continued exhibition of the cells to the sample to be testing.
(§2) A colorimetric type of assay, using sulphorhodamine B (SRB) reaction has been adapted for a quantitative measurement of cell growth and viability [following the technique described by Philip Skehan, et al. (1990), New colorimetric cytotoxicity assay for anticancer drug screening, J. Natl. Cancer Inst., 82:1107-1112]
(§3) This form of the assay employs 96 well cell culture microplates of 9 mm diameter (Faircloth, 1988; Mosmann, 1983). Most of the cell lines are obtained from American Type Culture Collection (ATCC) derived from different human cancer types.
(§4) Cells are maintained in RPMI 1640 10% FBS, supplemented with 0.1 g/l penicillin and 0.1 g/l streptomycin sulphate and then incubated at 37° C., 5% CO2 and 98% humidity. For the experiments, cells were harvested from subconfluent cultures using trypsin and resuspended in fresh medium before plating.
(§5) Cells are seeded in 96 well microtiter plates, at 5×10^3 cells per well in aliquots of 195 μl medium, and they are allowed to attach to the plate surface by growing in drug free medium for 18 hours. Afterward, samples are added in aliquots of 5 μl in a ranging from 10 to 10^−8 μg/ml, dissolved in DMSO/EtOH/PBS (0.5:0.5:99). After 48 hours exposure, the antitumor effect are measured by the SRB methodology: cells are fixed by adding 50 μl of cold 50% (wt/vol) trichloroacetic acid (TCA) and incubating for 60 minutes at 4° C. Plates are washed with deionized water and dried. One hundred μl of SRB solution (0.4% wt/vol in 1% acetic acid) is added to each microtiter well and incubated for 10 minutes at room temperature. Unbound SRB is removed by washing with 1% acetic acid. Plates are air dried and bound stain is solubilized with Tris buffer. Optical densities are read on a automated spectrophotometric plate reader at a single wavelength of 490 nm.
(§6) The values for mean+/− SD of data from triplicate wells are calculated. Some parameters for cellular responses can be calculated: GI=growth inhibition, TGI=total growth inhibition (cytostatic effect) and LC=cell killing (cytotoxic effect).

HT29 = assay: cells; type: cell-based; details: for GI50 / IC (TGI) / CC50 / TGI: HT29, 48 hours exposure, SRB; for CC50: read-out: LC50 (the source's name)
Text: as §1, §2, §3, §4, §5, §6

SMILES | IC50 (A549; Homo sapiens, A549) [nM] | IC50 (HT29; Homo sapiens, HT-29, HT29) [nM] | GI50 (A549; Homo sapiens, A549, 48 h) [nM] | CC50 (A549; Homo sapiens, A549, 48 h) [nM] | IC (TGI) (A549; Homo sapiens, A549, 48 h) [nM] | GI50 (HT29; Homo sapiens, HT-29, 48 h) [nM] | IC (TGI) (HT29; Homo sapiens, HT-29, 48 h) [nM] | CC50 (HT29; Homo sapiens, HT-29, 48 h) [nM] | GI50 (HT29) [nM] | TGI (HT29) [Molar] | TGI (A549) [Molar] | GI50 (A549) [nM] | CC50 (A549) [nM] | CC50 (HT29) [nM]
COc1c(C)cc2c(c1O)[C@@H]1C3[C@@H]4SC[C@]5(NCCc6c5[nH]c5ccccc65)C(=O)COC[C@@H](c5c6c(c(C)c(OC(C)=O)c54)OCO6)N3[C@@H](C#N)[C@H](C2)N1C (some centres unmarked) [Compound 1] | 1.31 | 1.31 |  |  |  |  |  |  |  |  |  |  |  | 
COc1ccc2[nH]c3c(c2c1)CCN[C@]31CS[C@@H]2c3c(OC(C)=O)c(C)c4c(c3[C@H](COCC1=O)N1C2[C@H]2c3c(cc(C)c(OC)c3O)C[C@@H]([C@@H]1C#N)N2C)OCO4 (some centres unmarked) [Compound 2] |  |  | 0.63 | 63000 | 6.3 | 1.26 | 1.26 | 63000 |  |  |  |  |  | 
COc1c(C)cc2c(c1O)[C@@H]1C3[C@@H]4SC[C@]5(NCCc6c5[nH]c5c(OCc7ccccc7)cccc65)C(=O)COC[C@@H](c5c6c(c(C)c(OC(C)=O)c54)OCO6)N3[C@@H](C#N)[C@H](C2)N1C (some centres unmarked) [Compound 3] |  |  | 345 | 57500 | 3450 | 230 | 230 | 57500 |  |  |  |  |  | 
COc1c(C)cc2c(c1O)[C@@H]1C3[C@@H]4SC[C@]5(NCCc6c5[nH]c5ccc(OCc7ccccc7)cc65)C(=O)COC[C@@H](c5c6c(c(C)c(OC(C)=O)c54)OCO6)N3[C@@H](C#N)[C@H](C2)N1C (some centres unmarked) [Compound 4] |  |  | 2300 | 11500 | 6900 | 2300 | 2300 | 11500 |  |  |  |  |  | 
COc1c(C)cc2c(c1O)[C@@H]1C3[C@@H]4SC[C@]5(NCCc6c5[nH]c5ccc(C)cc65)C(=O)COC[C@@H](c5c6c(c(C)c(OC(C)=O)c54)OCO6)N3[C@@H](C#N)[C@H](C2)N1C (some centres unmarked) [Compound 5] |  |  | 12.9 | 12900 | 129 | 12.9 | 12.9 | 5140 |  |  |  |  |  | 
COc1c(C)cc2c(c1O)[C@@H]1C3[C@@H]4SC[C@]5(NCCc6c5[nH]c5ccc(O)cc65)C(=O)COC[C@@H](c5c6c(c(C)c(OC(C)=O)c54)OCO6)N3[C@@H](C#N)[C@H](C2)N1C (some centres unmarked) [Compound 6] |  |  | 5.13 | 12800 | 51.3 | 5.13 | 5.13 | 5130 |  |  |  |  |  | 
COc1c(C)cc2c(c1O)[C@@H]1C3[C@@H]4SC[C@]5(NCCc6c5[nH]c5cc(F)ccc65)C(=O)COC[C@@H](c5c6c(c(C)c(OC(C)=O)c54)OCO6)N3[C@@H](C#N)[C@H](C2)N1C (some centres unmarked) [Compound 7] |  |  | 767 | 1280 | 128 | 63.9 | 63.9 | 1280 |  |  |  |  |  | 
COc1c(C)cc2c(c1O)[C@@H]1C3[C@@H]4SC[C@]5(C(=O)COC[C@@H](c6c7c(c(C)c(OC(C)=O)c64)OCO7)N3[C@@H](C#N)[C@H](C2)N1C)c1[nH]c2ccc(O)cc2c1CCN5C (some centres unmarked) [Compound 8] |  |  | 2.52 | 12600 | 10.1 | 2.52 | 2.52 | 5040 |  |  |  |  |  | 
COc1ccc2c3c([nH]c2c1)[C@@]1(CS[C@@H]2c4c(OC(C)=O)c(C)c5c(c4[C@H](COCC1=O)N1C2[C@H]2c4c(cc(C)c(OC)c4O)C[C@@H]([C@@H]1C#N)N2C)OCO5)NCC3 (some centres unmarked) [Compound 9] |  |  | 25.2 | 8820 | 101 | 378 | 378 | 12600 |  |  |  |  |  | 
COc1c(C)cc2c(c1O)[C@@H]1C3[C@@H]4SC[C@]5(NCCc6c5[nH]c5ccc(F)cc65)C(=O)COC[C@@H](c5c6c(c(C)c(OC(C)=O)c54)OCO6)N3[C@@H](C#N)[C@H](C2)N1C (some centres unmarked) [Compound 10] |  |  | 39.1 | 12800 | 128 | 40.3 | 12800 | 12800 |  |  |  |  |  | 
COc1c(C)cc2c(c1O)[C@@H]1C3[C@@H]4SC[C@]5(NCCc6c5[nH]c5c(C)cccc65)C(=O)COC[C@@H](c5c6c(c(C)c(OC(C)=O)c54)OCO6)N3[C@@H](C#N)[C@H](C2)N1C (some centres unmarked) [Compound 11] |  |  | 18.9 | 129 | 50 | 30.9 | 129 | 12900 |  |  |  |  |  | 
COc1c(C)cc2c(c1O)[C@@H]1C3[C@@H]4SC[C@]5(NC(C)Cc6c5[nH]c5ccc(O)cc65)C(=O)COC[C@@H](c5c6c(c(C)c(OC(C)=O)c54)OCO6)N3[C@@H](C#N)[C@H](C2)N1C (some centres unmarked) [Compound 12] |  |  | 7.28 | 12600 | 83.5 |  |  | 12600 | 13.7 | 1.26E−07 |  |  |  | 
COc1c(C)cc2c(c1O)[C@@H]1C3[C@@H]4SC[C@]5(NC(C)Cc6c5[nH]c5ccc(O)cc65)C(=O)COC[C@@H](c5c6c(c(C)c(OC(C)=O)c54)OCO6)N3[C@@H](C#N)[C@H](C2)N1C (some centres unmarked) [Compound 13] |  |  |  |  |  |  |  |  | 333 | 1.26E−06 | 6.79E−08 | 6.31 | 12600 | 12600
COc1c(C)cc2c(c1O)[C@@H]1C3[C@@H]4SC[C@]5(C(=O)COC[C@@H](c6c7c(c(C)c(OC(C)=O)c64)OCO7)N3[C@@H](C#N)[C@H](C2)N1C)c1[nH]c2ccccc2c1CCN5C (some centres unmarked) [Compound 15] |  |  |  |  |  |  |  | 13100 | 4.16 | 1.31E−08 | 1.31E−08 | 4.78 | 1270 | 
COc1c(C)cc2c(c1O)[C@@H]1C3[C@@H]4SC[C@]5(NC(C)Cc6c5[nH]c5ccc(F)cc65)C(=O)COC[C@@H](c5c6c(c(C)c(OC(C)=O)c54)OCO6)N3[C@@H](C#N)[C@H](C2)N1C (some centres unmarked) [Compound 16] |  |  |  | 4440 |  | 42.8 |  | 12800 |  | 1.28E−07 | 1.28E−07 | 36.7 |  | 
COc1c(C)cc2c(c1O)[C@@H]1C3[C@@H]4SC[C@]5(NC(C)Cc6c5[nH]c5ccc(F)cc65)C(=O)COC[C@@H](c5c6c(c(C)c(OC(C)=O)c54)OCO6)N3[C@@H](C#N)[C@H](C2)N1C (some centres unmarked) [Compound 17] |  |  |  |  |  |  |  |  | 22.2 | 1.28E−08 | 4.41E−08 | 5.39 | 6670 | 12800
COc1c(C)cc2c(c1O)[C@@H]1C3[C@@H]4SC[C@]5(NC(C)Cc6c5[nH]c5ccccc65)C(=O)COC[C@@H](c5c6c(c(C)c(OC(C)=O)c54)OCO6)N3[C@@H](C#N)[C@H](C2)N1C (some centres unmarked) [Compound 18] |  |  |  | 12900 |  | 5.62 | 129 | 12900 |  |  | 1.29E−07 | 6.77 |  | 
COc1c(C)cc2c(c1O)[C@@H]1C3[C@@H]4SC[C@]5(NC(C)Cc6c5[nH]c5ccccc65)C(=O)COC[C@@H](c5c6c(c(C)c(OC(C)=O)c54)OCO6)N3[C@@H](C#N)[C@H](C2)N1C (some centres unmarked) [Compound 19] |  |  |  |  |  |  |  |  | 4.45 | 1.29E−07 | 1.29E−08 | 3.27 | 12900 | 12900
CCCC(=O)Oc1c(OC)c(C)cc2c1[C@@H]1C3[C@@H]4SC[C@]5(NCCc6c5[nH]c5ccccc65)C(=O)COC[C@@H](c5c6c(c(C)c(OC(C)=O)c54)OCO6)N3[C@@H](C#N)[C@H](C2)N1C (some centres unmarked) [Compound 20] |  |  | 330 | 6770 | 1200 | 596 | 12000 | 12000 |  |  |  |  |  | 
COc1c(C)cc2c(c1OC(=O)OC(C)(C)C)[C@@H]1C3[C@@H]4SC[C@]5(NCCc6c5[nH]c5ccccc65)C(=O)COC[C@@H](c5c6c(c(C)c(OC(C)=O)c54)OCO6)N3[C@@H](C#N)[C@H](C2)N1C (some centres unmarked) [Compound 21] |  |  | 758 | 11600 | 6990 | 1180 | 11600 | 11600 |  |  |  |  |  | 
C=COC(=O)Oc1c(OC)c(C)cc2c1[C@@H]1C3[C@@H]4SC[C@]5(NCCc6c5[nH]c5ccccc65)C(=O)COC[C@@H](c5c6c(c(C)c(OC(C)=O)c54)OCO6)N3[C@@H](C#N)[C@H](C2)N1C (some centres unmarked) [Compound 22] |  |  | 39.3 | 12000 | 120 | 120 | 5700 | 12000 |  |  |  |  |  | 
